The values below come from publication PMC11887451, “Leveraging Immunogenic Cell Death to Enhance the Immune Response against Malignant Pleural Mesothelioma Tumors” (Journal of the American Chemical Society, 2025).

The test system of data set [1] is patient-derived VMC23 cell line (epithelioid MPM). Kind of data set: MTT cytotoxicity assay, 72 h, VMC23. The format is cell-based, human. As to conditions: exposure time 72 h.
The conditions of data set [2]: determined from retention time using RP-HPLC.
In data set [3] the test system is patient-derived Meso84 cell line (sarcomatoid MPM). Nature of the data set: MTT cytotoxicity assay, 72 h, Meso84. The class given is cell-based, human. As to conditions: exposure time 72 h.
Source text: (§1) Human malignant mesothelioma cancer cell lines JU77 and LO68 were obtained from Cell Bank Australia (Children's Medical Research Institute, Westmead, Australia). Mouse malignant mesothelioma cancer cell line AB12, human nonmalignant mesothelioma cancer cell line Met5A (mesothelial cells), mouse macrophage cell line J774 and human monocytic cell line THP-1 were obtained from American Type Culture Collection (ATCC) (Rockville, MD, USA). Human malignant mesothelioma cell lines VMC23 (epithelial), Meso82 (sarcomatous), Meso92 (biphasic), were kindly provided by Prof. Walter Berger (Medical University of Vienna). All cells except for J774 were cultured in RPMI and J774 cells were cultured in DMEM. Both types of media were supplemented with 10% FBS and 1% penicillin-streptomycin (10,000 U/mL). Cells were grown in tissue culture flasks (75 cm2 and 25 cm2, SPL Life Sciences Co., Ltd., Korea). All cell lines were grown at 37 °C in a humidified atmosphere of 95% air and 5% CO 2 and passaged when they reached 80–90% confluency. All Au stock solutions were prepared in 1% DMSO in the respected medium, ensuring that cell viability was not inhibited.
(§2) The cytotoxicity of compounds was determined using an MTT colorimetric test. The cells were harvested from culture flasks by trypsinization and seeded into Cellstar 96 -well microculture plates (Greiner Bio -One) at the seeding density of 6000 cells per well (6 × 10^4 cells/mL). After
(§3) the cells were allowed to resume exponential growth for 16 h, they were exposed to drugs at
(§4) different concentrations in media for 72 h. The drugs were diluted in a complete medium at the desired concentration added to each well (100 μL) and serially diluted in other wells. After exposure for 72 h, the media was replaced with MTT in media (5 mg/mL, 100 μL/well) and
(§5) incubated for an additional 50 min. Subsequently, the medium was aspirated, and the purple formazan crystals formed in viable cells were dissolved in DMSO (100 μL/well). Optical densities were measured at 570 nm using a BioTek Synergy H1 microplate and MultiskanTM SkyHigh plate readers. The quantity of viable cells was expressed in terms of treated/control (T/C) values in comparison to untreated control cells, and 50% inhibitory concentrations (IC 50) were calculated from concentration-effect curves by interpolation. An evaluation was based on means from at least three independent experiments, each comprising three replicat es per
Data set [4] relates to human malignant mesothelioma cell line LO68. Nature of the data set: MTT cytotoxicity assay, 72 h, LO68. The class given is cell-based. Conditions: exposure time 72 h. In general terms: Tetrazolium assays rely on reduction of a dye to a coloured formazan, in cell work by metabolically active cells.
Source text: as §1, §2, §3, §4, §5
The test system of data set [5] is AB12 cells. Kind of data set: Annexin V/PI assay (necrosis), flow cytometry. The format is cell-based, mouse. Conditions: AB12, 5 × IC50 (72 h), short exposure. On the procedure:
centrifugation of the cells (300 × g, 5 min), 5 ml of fresh RPMI was introduced, and the cells were seeded at a density of 5 x 10^5 cells per well into Cellstar 6-well plates (Greiner Bio-One) (1 ml per well). J774 macrophages (70-80% confluence in a T75 flask) were detached by scraping, centrifuged (300 × g, 5 min). The medium was substituted with 1 ml of DMEM containing CellTracker Green CMFDA (1 μM) and the J774 macrophages were stained at 37°C for 30 minutes. Following centrifugation of the J774 macrophages (300 × g, 5 min), 5 ml of fresh DMEM was introduced, and the macrophages were seeded into a 100 cm2 petri dish (SPL Life Sciences, Korea). After 24 h, the media in AB12 cells was replaced with 1 ml of fresh RPMI containing compounds of interest at equipotent concentration of 5 × IC50 and incubated for 100 minutes. After removing the drug-containing media, the cells were trypsinized (0.5 ml), neutralized with 1 ml of RPMI, centrifuged (300 × g, 5 min) and counted. From each sample, 2 × 10^5 AB12 cells were seeded into Cellstar 6-well plates (Greiner Bio-One) (1 ml per well).
2 × 10^5 J774 macrophages were detached from a petri dish by scraping and added to AB12 cells into 6-well plates. AB12 cells and J774 macrophages were co-incubated for 16 h at 37°C and 5% CO2, detached by scraping, centrifuged (300 × g, 5 min), and the pellets were resuspended in PBS for immediate analysis using a CytoFLEX Flow Cytometer (Beckman Coulter, USA). The percentage of phagocytosis was determined by calculating the number of double-positive macrophages (Q2) over the total number of macrophages (Q2 + Q3). Dot plots […]
analysis of the flow cytometry data. […]
concentrations for 100 min at 37 °C. […] Cell death was evaluated by flow cytometry using a CytoFLEX Flow Cytometer equipped with a 488 nm laser and a 638 nm laser (Beckman Coulter, Brea, CA, USA). The cells were excited by the 488 nm laser, and fluorescence emissions were detected at 525/40 nm for FITC (Annexin V) and at 610/20 nm for ECD (PI).
The percentage of necrosis was determined by calculating the sum of cells in Q1 and Q2. […]
(In general: Flow cytometry measures light scatter and fluorescence of single cells or particles in a stream.)

In data set [6] the test system is murine malignant mesothelioma cell line AB12. Nature of the data set: MTT cytotoxicity assay, 72 h, AB12. The class given is cell-based, mouse. Conditions: exposure time 72 h.
Source text: as §1, §2, §3, §4, §5
Data set [7] concerns human nonmalignant mesothelioma cell line Met5A. Nature of the data set: MTT cytotoxicity assay, 72 h, Met5A. The format is cell-based. As to conditions: exposure time 72 h.
Source text: Cell lines and culture conditions
(§6) Mouse malignant mesothelioma cancer cell line AB12, human nonmalignant mesothelioma cancer cell line Met5A (mesothelial cells), mouse macrophage cell line J774 and human monocytic cell line THP-1 were obtained from American Type Culture Collection (ATCC) (Rockville, MD, USA). Human malignant mesothelioma cell lines VMC23 (epithelial), Meso82 (sarcomatous), Meso92 (biphasic), were kindly provided by Prof. Walter Berger (Medical University of Vienna). All cells except for J774 were cultured in RPMI and J774 cells were cultured in DMEM. Both types of media were supplemented with 10% FBS and 1% penicillin-streptomycin (10,000 U/mL). Cells were grown in tissue culture flasks (75 cm2 and 25 cm2, SPL Life Sciences Co., Ltd., Korea). All cell lines were grown at 37 °C in a humidified atmosphere of 95% air and 5% CO 2 and passaged when they reached 80–90% confluency. All Au stock solutions were prepared in 1% DMSO in the respected medium, ensuring that cell viability was not inhibited. The Au concentration in the stock solutions was confirmed through inductively coupled plasma optical emission spectrometry. The stock solution of pemetrexed (10 mM) was prepared in Milli -Q water.
Inhibition of c ell viability assay
as §2, §3, §4, §5
Data set [8] deals with human malignant mesothelioma cell line JU77. Nature of the data set: MTT cytotoxicity assay, 72 h, JU77. The class given is cell-based. As to conditions: exposure time 72 h.
In data set [9] the test system is patient-derived Meso92 cell line (biphasic MPM). Kind of data set: MTT cytotoxicity assay, 72 h, Meso92. The class given is cell-based, human. Conditions: exposure time 72 h.
Source text: Cell lines and culture conditions
as §6
Inhibition of c ell viability assay
as §2, §3, §4, §5
For data set [10], the system named is AB12 cells phagocytosed by J774 macrophages. Nature of the data set: Phagocytosis assay, flow cytometry. The format is cell-based, mouse. Conditions: AB12 treated 100 min at 5 × IC50 (72 h), 16 h with J774 macrophages. On the procedure:
page 21: incubated for an additional 50 min. Subsequently, the medium was aspirated, and the purple formazan crystals formed in viable cells were dissolved in DMSO (100 μL/well). Optical densities were measured at 570 nm using a BioTek Synergy H1 microplate and MultiskanTM SkyHigh plate readers. The quantity of viable cells was expressed in terms of treated/control (T/C) values in comparison to untreated control cells, and 50% inhibitory concentrations (IC 50) were calculated from concentration-effect curves by interpolation. An evaluation was based on means from at least three independent experiments, each comprising three […] concentration level. For macrophage analyses, the acute monocytic leukemia -derived THP-1 cell line (ATCC) was used as a model. 1 × 104 THP-1 cells were seeded per well in 96-well plates in RPMI-1640 with 10% FCS and treated for 24 h with 75 nM phorbol 12-myristate 13-acetate (PMA, Sigma- Aldrich) to induce M0 macrophage differentiation. After the differentiation period, PMA was replaced by fresh culture medium to recover for 2h. Afterwards increasing concentrations of 1G, 5A, 5B and 5G were added for a 72-h continuous drug exposure assay. In parallel, the […] were allowed to attach for 24 h. Gold compounds were added to the cells as described for the THP-1 model above. After the incubation period of 72 h, cell viability was determined by an MTT-based assay (EU4U, Biomedica) following the instructions of the manufacturer. DMSO had not impact on the cell viability at the concentrations used. Flow cytometry experiments Phagocytosis assay […] with RPMI, centrifuged (300 × g, 5 min) and labelled with CellTracker Red CMTPX Dye (0.72 μM for 5 × 10^5 cells) at 37°C for 30 minutes in 1 ml of serum -free RPMI. Following S21 page 22: centrifugation of the cells (300 × g, 5 min), 5 ml of fresh RPMI was introduced, and the cells were seeded at a density of 5 x 10^5 cells per well into Cellstar 6-well plates (Greiner Bio-One) (1 ml per well). J774 macrophages (70-80% confluence in a T75 flask) were detached by scraping, centrifuged (300 × g, 5 min). The medium was substituted with 1 ml of DMEM containing CellTracker Green CMFDA (1 μM) and the J774 macrophages were stained at 37°C for 30 minutes. Following centrifugation of the J774 macrophages (300 × g, 5 min), 5 ml of fresh DMEM was introduced, and the macrophages were seeded into a 100 cm2 petri dish (SPL Life Sciences, Korea). After 24 h, the media in AB12 cells was replaced with 1 ml of fresh […] for 100 minutes. After removing the drug-containing media, the cells were trypsinized (0.5 ml), neutralized with 1 ml of RPMI, centrifuged (300 × g, 5 min) and counted. From each sample, […] cells into 6-well plates. AB12 cells and J774 macrophages were co-incubated for 16 h at 37°C and 5% CO2, detached by scraping, centrifuged (300 × g, 5 min), and the pellets were resuspended in PBS for immediate analysis using a CytoFLEX Flow Cytometer (Beckman Coulter, USA). The percentage of phagocytosis was determined by calculating the number of double-positive macrophages (Q2) over the total number of macrophages (Q2 + Q3). […] Annexin V/PI assay AB12 cells were seeded into Cellstar 6-well plates (Greiner Bio-One) at a density of 5 × 10^5 cells/well (1 ml per well). […] The medium was removed and cells were washed with PBS (2 × 1 mL). Afterwards the cells were […] S22

For data set [11], the system named is BALB/c mice. As to conditions: i.p., 12 injections, 5F 2.5 mg/kg.
Data set [12] relates to calreticulin (CRT) in AB12 cells. Nature of the data set: CRT detection, flow cytometry. The class given is cell-based, mouse. Conditions: AB12, 5 × IC50 (72 h), 120 min. The protocol:
page 23: concentrations for 100 min at 37 °C. After the treatment, the supernatant was collected in 2 mL microtubes, centrifuged (300 × g, 5 min) and the media was removed. The adherent cells were then trypsinized with 500 μL of trypsin at 37 °C for 5 min. Next, 1 mL of medium was added to neutralize trypsin and the resulting cell suspension was combined with the supernatant. The wells were washed with 200 μL of PBS, which was also combined with the supernatant. The combined solutions were centrifuged (300 × g, 5 min), and the resulting pellets were washed with PBS (2 × 1 mL) and resuspended in 200 μL of Annexin V binding buffer. […] Cell death was evaluated by flow cytometry using a CytoFLEX Flow Cytometer equipped with a 488 nm laser and a 638 nm laser (Beckman Coulter, Brea, CA, USA). The cells were excited by the 488 nm laser, and fluorescence emissions were detected at 525/40 nm for FITC (Annexin V) and at 610/20 nm for ECD (PI). […] The percentage of necrosis was determined by calculating the sum of cells in Q1 and Q2. […] Next, cells were incubated with CRT antibody conjugated with AlexaFluor S23 page 24: 488 (62304S, Cell Signaling Technology) at 4 °C overnight, washed twice with PBS, reconstituted in 500 µL of PBS and analyzed by flow cytometry using a CytoFLEX Flow Cytometer equipped with a 488 nm laser and a 638 nm laser (Beckman Coulter, Brea, CA, USA). […]

For `F[P-](F)(F)(F)(F)F.c1cc[c]2c(c1)-c1cccc[n+]1[Au-]21[S]C(=[N+]2CCCCC2)[S]1` (stereo not shown) [1H], the IC50 (in general, the concentration that inhibits the measured activity by half) in data set [1] is 1400 ± 100 nM; in data set [3] it was 700 ± 90 nM; in data set [4] it was 370 ± 100 nM; in data set [6], 91 ± 18 nM; in [7], 130 ± 30 nM; in [8], 620 ± 120 nM. In addition, inhibition in [9] was half-maximal at 1100 ± 100 nM (IC50). The LogP (commonly a log measure of how a compound divides between an organic and an aqueous phase) in data set [2] is listed as 2.45. Further, in data set [5], the “necrotic cell death (in words)” value is “did not result in significant necrotic cell death”. For the same compound, the “phagocytosis / ICD response (in words)” value in data set [10] is given as “high levels of phagocytosis”.

Consider `F[P-](F)(F)(F)(F)F.c1cc[c]2c(c1)Nc1cccc[n+]1[Au-]21[S]C(=[N+]2CCCCC2)[S]1` (stereo not shown) [5H], for which the IC50 is 940 ± 270 nM in data set [1]; 100 ± 20 nM in [3]; 440 ± 90 nM in [4]; 100 ± 10 nM in data set [6]; 130 ± 10 nM in data set [7]; 400 ± 90 nM in [8]. For the same compound, the midpoint of inhibition in data set [9], the IC50, lay at 820 ± 180 nM. Besides, the “signs of toxicity, daily injections” value in data set [11] (5A and 5H 4 mg/kg) is “led to toxicity in mice”. Also, the “deaths, daily injections” value in data set [11] (5H 4 mg/kg) is recorded as “death of two mice”.

On to `N.N.[Cl][Pt][Cl]` [Cisplatin, cisplatin, reference compound], for which the IC50 in [1] is 3600 ± 1000 nM; in [3] it was 17000 ± 2000 nM; in [4] it was 20000 ± 6000 nM; in data set [6], 4500 ± 800 nM; in [7] it was 2000 ± 500 nM; in data set [8], 4200 ± 500 nM. The compound further had an IC50 in [9] of 4000 ± 900 nM. In data set [12], the “CRT expression (in words)” value is listed as “no changes in CRT expression”. In data set [10], the “phagocytosis / ICD response (in words)” value is “failed to initiate any ICD response”.
